Assay: MALDI-TOF screening of Ni^2+ dependent hydrolysis in a combinatorial peptide library
Format: physicochemical
Details: CH3CO-Gly-Ala-Ser-X-His-Z-Lys-Phe-Leu-NH2 library, Ni^2+ 2 mM, pH 8.2, 10 mM Tris, score=24/tm
Excerpt: The sequence CH3CO-Gly-Ala-Ser/Thr-X-His-Z-Lys-Phe-Leu-NH2 was designed so that the fixed R1 and R2 sequences, CH3CO-Gly-Ala, and Lys-Phe-Leu-NH2, respectively, allowed optimal detection by MALDI-TOF mass spectrometry of substrates as well as expected products, Ser/Thr-X-His-Z-Lys-Phe-Leu-NH2 and assured separation between the clusters of signals for substrates and products in sublibraries (see below).
Residues in position X included all amino acids commonly present in proteins, except for Asp, Glu, and Cys. The former two contain carboxylates in their side chains, which may bind Ni^2+ in a way which would quench or slow down the hydrolysis reaction. The Cys residue may do the same, and also may engage in side reactions with Ni^2+ ions, including redox processes (for example see Bal and Kasprzak, Toxicol. Lett. 2002, 127, 55-62). Only the Cys residue was eliminated from position Z, for the same reasons.
The synthesis of the library was accomplished on a RINK amide resin (Novabiochem) on a 800 mg scale, according to a typical Fmoc protocol (Fields, Meth. Enzymol. Vol. 289). The resin-attached Leu-Phe-Lys peptide was synthesised first and coupled with the isokinetic mixture of 19 amino acids selected for position Z, and then with the H is residue. The resin carrying the library of pentapeptides was divided into Ser and Thr halves at this stage, and each of these halves into 17 portions, which were coupled with individual amino acids selected for position X. The coupling with Ser or Thr as appropriate, additions of Ala and Gly residues, acetylation of Gly, deprotection and cleavage from the resin were accomplished subsequently. Each of the resulting 34 samples of sublibraries randomized at position X was separated into two portions, one for the reaction at 37° C. and another for the reaction at 45° C. The hydrolysis reactions were accomplished in 10 mM Tris buffers at pH 8.2. The total concentrations of peptide mixtures and Ni^2+ ions were 1 mM and 2 mM, respectively. The pH for the reaction was chosen as selective for highly reactive sequences.
The detection of reaction products was accomplished with the use of a MALDI-TOF mass spectrometer (Micromass). The aliquots were removed from reaction mixtures and measured by MS at 2, 4, 6, and 8 hours of incubation. The progress of reaction was evaluated by visual detection in mass spectra of appearance of signals corresponding to expected products of hydrolysis, Ser/Thr-X-His-Z-Lys-Phe-Leu-NH2, at given measurement times, tm. […] Also the decrease of signals of substrates was controlled in these cases.
Residues X and Z were then sorted according to various molecular parameters, describing their physical properties (Carugo, In Silico Biol. 2003, 3, 0035). […] The Ser library provided a higher number of reactive peptides than the Thr library. Following the additivity of effects, the scores were also summed up in lines and columns of Table 1A-D, thereby creating final rankings for preferred substitutions in positions X and Z.

Substance | hydrolysis score from MALDI-TOF screening (37° C.) | hydrolysis score from MALDI-TOF screening (45° C.)
Ac-GASFHWKFL-NH2 [SFHW] | 4 (a score of 4 for detection at 6 hours) | 6 (a score of 6 for detection at 4 hours)
Ac-GASFHYKFL-NH2 [SFHY] | 3 (a score of 3 for detection at 8 hours) | 6 (a score of 6 for detection at 4 hours)
Ac-GASGHAKFL-NH2 [SGHA] | 0 (a score of 0 if no trace of the product of hydrolysis was seen after 8 hours of incubation) | 0 (a score of 0 if no trace of the product of hydrolysis was seen after 8 hours of incubation)
Ac-GASGHDKFL-NH2 [SGHD] | 0 (a score of 0 if no trace of the product of hydrolysis was seen after 8 hours of incubation) | 0 (a score of 0 if no trace of the product of hydrolysis was seen after 8 hours of incubation)
Ac-GASGHEKFL-NH2 [SGHE] | 0 (a score of 0 if no trace of the product of hydrolysis was seen after 8 hours of incubation) | 0 (a score of 0 if no trace of the product of hydrolysis was seen after 8 hours of incubation)
Ac-GASGHFKFL-NH2 [SGHF] | 0 (a score of 0 if no trace of the product of hydrolysis was seen after 8 hours of incubation) | 0 (a score of 0 if no trace of the product of hydrolysis was seen after 8 hours of incubation)
Ac-GASGHGKFL-NH2 [SGHG] | 0 (a score of 0 if no trace of the product of hydrolysis was seen after 8 hours of incubation) | 0 (a score of 0 if no trace of the product of hydrolysis was seen after 8 hours of incubation)
Ac-GASGHHKFL-NH2 [SGHH] | 0 (a score of 0 if no trace of the product of hydrolysis was seen after 8 hours of incubation) | 0 (a score of 0 if no trace of the product of hydrolysis was seen after 8 hours of incubation)
Ac-GASGHIKFL-NH2 [SGHI] | 0 (a score of 0 if no trace of the product of hydrolysis was seen after 8 hours of incubation) | 3 (a score of 3 for detection at 8 hours)
Ac-GASGHKKFL-NH2 [SGHK] | 0 (a score of 0 if no trace of the product of hydrolysis was seen after 8 hours of incubation) | 3 (a score of 3 for detection at 8 hours)
Ac-GASGHLKFL-NH2 [SGHL] | 0 (a score of 0 if no trace of the product of hydrolysis was seen after 8 hours of incubation) | 3 (a score of 3 for detection at 8 hours)
Ac-GASGHMKFL-NH2 [SGHM] | 0 (a score of 0 if no trace of the product of hydrolysis was seen after 8 hours of incubation) | 0 (a score of 0 if no trace of the product of hydrolysis was seen after 8 hours of incubation)
Ac-GASGHNKFL-NH2 [SGHN] | 0 (a score of 0 if no trace of the product of hydrolysis was seen after 8 hours of incubation) | 0 (a score of 0 if no trace of the product of hydrolysis was seen after 8 hours of incubation)
Ac-GASGHPKFL-NH2 [SGHP] | 0 (a score of 0 if no trace of the product of hydrolysis was seen after 8 hours of incubation) | 0 (a score of 0 if no trace of the product of hydrolysis was seen after 8 hours of incubation)
